Assay results taken from patent US11026426B2, “Oxadiazole and phenol derivatives as antibacterial and/or herbicidal agents” (NORTHERN ILLINOIS RESEARCH FOUNDATION, priority 2017, dated 2021).
Like-named read-outs stand apart in the source and are kept apart here.

Tests used:
Bacillus cereus [1] = test: Antibacterial preliminary screening BC; assay type: cell-based; details: score 0-3; note: key: 0 represents no inhibition; 3 is comparable to commercial antibiotic control
[2] = target: Lycopersicon esculentum IspE (LeIspE) (Solanum lycopersicum, UniProt P93841); test: Thermal shift assay against LeIspE; assay type: binding
Lycopersicon esculentum IspE (LeIspE), sequence (P93841 89-401): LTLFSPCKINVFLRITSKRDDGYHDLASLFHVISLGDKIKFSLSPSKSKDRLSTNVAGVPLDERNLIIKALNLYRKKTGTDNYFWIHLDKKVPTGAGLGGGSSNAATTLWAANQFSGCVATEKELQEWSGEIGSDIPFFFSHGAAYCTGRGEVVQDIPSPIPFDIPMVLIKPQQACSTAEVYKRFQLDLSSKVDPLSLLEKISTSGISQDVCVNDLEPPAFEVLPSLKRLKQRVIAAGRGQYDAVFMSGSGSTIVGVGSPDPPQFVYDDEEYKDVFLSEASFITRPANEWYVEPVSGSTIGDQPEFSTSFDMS

AtIspF = AtIspF (Arabidopsis thaliana, UniProt Q9CAK8); test: University of Hamburg photometric enzymatic inhibition assay AtIspF; assay type: biochemical
AtIspF, sequence (Q9CAK8 53-231): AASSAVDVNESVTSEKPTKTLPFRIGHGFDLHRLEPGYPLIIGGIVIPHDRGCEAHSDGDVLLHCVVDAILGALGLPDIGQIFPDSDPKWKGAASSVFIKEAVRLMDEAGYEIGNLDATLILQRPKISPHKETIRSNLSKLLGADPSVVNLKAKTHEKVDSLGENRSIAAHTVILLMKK
Description: (§1) Compounds were subjected to a photometric enzymatic assay to test for inhibition of the plant enzymes Arabidopsis thaliana IspD and IspF, and IspE from Lycopersicon esculentum.
The IspF assay mixture conditions were as follows: 100 mM Tris hydrochloride at pH 8.0 with 10 mM MgCl2, 1 mM dithiothreitol, 2.5 mM potassium phosphoenol pyruvate, 2 mM ATP, 1 mM of 4-diphosphocytidyl-2C methylerythritol 2-phosphate, 460 μM NADH, 1.1% (v/v) DMSO, 0.5 U CMP kinase, 2.4 mU IspF, 1 U lactate dehydrogenase, 1 U pyruvate kinase in 180 μL of solution. Solutions were incubated at 27° C. and monitored photometrically.

[3] = system: Corynebacterium pseudodiphtheriae; test: Antibacterial preliminary screening CP; assay type: cell-based; details: score 0-3;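 note: 0 is no inhibition and 3 matches the commercial antibiotic control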
Micrococcus luteus [4] = test: Antibacterial preliminary screening ML; assay type: cell-based; details: score 0-3; note: key: 0 represents no inhibition; 3 is comparable to commercial antibiotic control
Mycobacterium smegmatis [5] = test: Antibacterial preliminary screening MS; assay type: cell-based; details: for MS score: score 0-3
[6] = target: T1, Mycobacterium tuberculosis IspD (MtIspD) (Mycobacterium tuberculosis, UniProt P9WKG9); test: Thermal shift assay against MtIspD; assay type: binding
T1 sequence (P9WKG9 1-231): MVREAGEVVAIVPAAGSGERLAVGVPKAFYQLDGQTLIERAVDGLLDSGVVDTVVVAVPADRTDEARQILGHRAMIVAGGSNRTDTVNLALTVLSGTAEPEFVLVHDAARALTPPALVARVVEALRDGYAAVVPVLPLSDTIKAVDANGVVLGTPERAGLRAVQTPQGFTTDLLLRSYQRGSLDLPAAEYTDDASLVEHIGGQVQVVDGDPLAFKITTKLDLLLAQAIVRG

AtIspD = AtIspD (Arabidopsis thaliana, UniProt P69834); test: University of Hamburg photometric enzymatic inhibition assay AtIspD; assay type: biochemical
AtIspD, sequence (P69834 62-302): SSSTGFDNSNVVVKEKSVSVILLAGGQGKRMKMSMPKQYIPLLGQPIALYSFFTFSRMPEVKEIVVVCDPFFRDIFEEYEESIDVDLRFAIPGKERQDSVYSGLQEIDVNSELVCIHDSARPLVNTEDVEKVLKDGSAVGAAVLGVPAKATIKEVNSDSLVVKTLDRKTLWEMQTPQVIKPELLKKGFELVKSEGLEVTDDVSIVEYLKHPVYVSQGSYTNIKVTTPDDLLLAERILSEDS
Description: as §1
The procedure for AtIspD enzymatic inhibition assay, was performed by making an assay mixture of 100 mM Tris hydrochloride at pH 8.0 with 10 mM MgCl2, 1 mM dithiothreitol, 2.5 mM potassium phosphoenol pyruvate, 2.1 mM CTP, 2 mM ATP, 1 mM of (2R,3S)-2,3-dihydroxy-4-oxopentyl phosphate, 460 μM NADH, 1.1% (v/v) DMSO, 0.4 U IspE, 1 U lactate dehydrogenase, 1 U pyruvate kinase and 2.4 mU IspD in 180 μL of solution. Solutions were incubated at 27° C. and monitored photometrically. By preparing the assay mixture with a large excess of IspE compared to IspD, any inhibition of IspE by the test inhibitor would be insignificant compared to IspD and therefore the rate of the reaction is determined by IspD activity.

[7] = system: Burkholderia thailandensis; assay type: cell-based; details: preliminary screening; for BT score: score 0-3
lettuce seeds = test: Lettuce leaf assay; assay type: in vivo; design: key: 0 (no effect); 5(complete inhibition or bleaching); details: ranking 0-5
From the text: The lettuce leaf assay is a qualitative assay used to determine the relative effectiveness of the test compounds at inhibition of germination of seeds and root development as well as causing bleaching of leaves. Isoprenoid synthesis is vital in plants as isoprene-product gibberellins are a class of growth hormones in plants responsible for stimulating cell elongation and division. In addition, some carotenoids are involved in photosynthesis as components of the electron transport chain. MEP pathway inhibitors have the potential to prevent synthesis of these necessary cellular components and growth hormones resulting in inhibition of germination and root development as well as causing chlorosis, or bleaching in the leaves. The lettuce leaf assay, explores the effects of compounds as potential MEP pathway inhibitors by evaluating the effect on bleaching, root development, and germination of lettuce seeds, which all rely on isoprenoid biosynthesis. […] The assay is a qualitative assay and the effects are given rankings from 0 (no effect) to 5 (complete inhibition or bleaching). In this assay, compounds are dissolved in a volatile organic solvent and applied to filter paper in a petri dish. The solvent is allowed to evaporate and lettuce seeds are applied followed by the addition of 5 mL of water to obtain the necessary concentrations. Seeds are allowed to grow and they are observed on day 3 and day 4 for evaluation.

Escherichia coli [8] = test: Antibacterial preliminary screening EC; assay type: cell-based; details: score 0-3; note: key: 0 represents no inhibition; 3 is comparable to commercial antibiotic control
Pseudomonas aeruginosa [9] = test: Antibacterial preliminary screening PA; assay type: cell-based; details: score 0-3; note: key: 0 represents no inhibition; 3 is comparable to commercial antibiotic control
LeIspE = LeIspE (Solanum lycopersicum, UniProt P93841); test: University of Hamburg photometric enzymatic inhibition assay LeIspE; assay type: biochemical, Lycopersicon esculentum
LeIspE, sequence (P93841 89-401): as the sequence (P93841 89-401) above
Description: as §1
The IspE assay conditions were very similar to the IspD assay in which the assay mixture was composed of 100 mM Tris hydrochloride at pH 8.0 with 10 mM MgCl2, 1 mM dithiothreitol, 2.5 mM potassium phosphoenol pyruvate, 2 mM ATP, 1 mM of 4-Diphosphocytidyl-2-C-methylerythritol, 460 μM NADH, 1.1% (v/v) DMSO, 2.4 mU IspE, 1 U lactate dehydrogenase, 1 U pyruvate kinase in 180 μL of solution. Solutions were incubated at 27° C. and monitored photometrically.

Corynebacterium xerosis [10] = test: Antibacterial preliminary screening CX; assay type: cell-based; details: score 0-3; note: key: 0 represents no inhibition; 3 is comparable to commercial antibiotic control
Klebsiella pneumonia [11] = test: Antibacterial preliminary screening KP; assay type: cell-based; details: score 0-3; note: key: 0 represents no inhibition; 3 is comparable to commercial antibiotic control
Escherichia coli [12] = test: Antibacterial assay zone of inhibition Ec; assay type: cell-based
[13] = system: Burkholderia thailandensis; assay type: cell-based
Bacillus cereus [14] = test: Antibacterial assay zone of inhibition Bc; assay type: cell-based
Corynebacterium xerosis [15] = test: Antibacterial assay zone of inhibition Cx; assay type: cell-based
Pseudomonas aeruginosa [16] = test: Antibacterial assay zone of inhibition Pa; assay type: cell-based
Mycobacterium smegmatis [17] = test: Antibacterial assay zone of inhibition Ms; assay type: cell-based
[18] = system: Corynebacterium pseudodiphtheriae; test: Antibacterial assay zone of inhibition Cp; assay type: cell-based
Micrococcus luteus [19] = test: Antibacterial assay zone of inhibition Ml; assay type: cell-based
Klebsiella pneumonia [20] = test: Antibacterial assay zone of inhibition Kp; assay type: cell-based

Row | Structure (SMILES) | BC score (Bacillus cereus [1]) | melting point [°C] | CP score [3] | ML score (Micrococcus luteus [4]) | MS score (Mycobacterium smegmatis [5]) | BT score [7] | EC score (Escherichia coli [8]) | PA score (Pseudomonas aeruginosa [9]) | CX score (Corynebacterium xerosis [10]) | KP score (Klebsiella pneumonia [11]) | IC50 (AtIspF) [µM] | IC50 (AtIspD) [µM] | IC50 (LeIspE) [µM] | Antibacterial Ec zone of inhibition (Escherichia coli [12]; 0.1 mM) [millimeters] | Antibacterial Ec zone of inhibition (Escherichia coli [12]; 0.5 mM) [millimeters] | Antibacterial Ec zone of inhibition (Escherichia coli [12]; 1 mM) [millimeters] | Antibacterial Bc zone of inhibition (Bacillus cereus [14]; 0.1 mM) [millimeters] | Antibacterial Bc zone of inhibition (Bacillus cereus [14]; 0.5 mM) [millimeters] | Antibacterial Bc zone of inhibition (Bacillus cereus [14]; 1 mM) [millimeters] | Antibacterial Cx zone of inhibition (Corynebacterium xerosis [15]; 0.1 mM) [millimeters] | other results
1 | FC(F)(F)c1ccc(-c2nnc(-c3nc4ccccc4[nH]3)o2)cc1 [HGN-422, 2-(1H-benzo[d]imidazol-2-yl)-5-(4-(trifluoromethyl)phenyl)-1,3,4-oxadiazole] | 0 | 275 to 280 | 0 | 0 | 1 | 1 | 0 | 0 | 0 | 0 |  |  |  |  |  |  |  |  |  |  | LeIspE melting point change [2]: −3.25 °C; LeIspE melting temp [2]: 46.25 °C; IC50 (AtIspF; read-out: AtIspF IC50): > 500 µM; antibacterial activity against Mycobacterium smegmatis (Mycobacterium smegmatis [5]): slight antibacterial activity; MtIspD melting point change [6]: 1.0 °C; MtIspD melting temp [6]: 49.0 °C; IC50 (AtIspD; read-out: AtIspD IC50): 251 µM; antibacterial activity against Burkholderia thailandensis [7]: slight antibacterial activity; Bleaching (lettuce seeds; 0.15 mM): 0; Germination (lettuce seeds; 0.15 mM): 0; Root Dev. (lettuce seeds; 0.15 mM): 0; Bleaching (lettuce seeds; 0.3 mM): 0; Germination (lettuce seeds; 0.3 mM): 0; Root Dev. (lettuce seeds; 0.3 mM): 0; IC50 (LeIspE; read-out: LeIspE IC50): 267 µM
2 | c1ccc(-c2nnc(-c3cc4ccccc4[nH]3)o2)cc1 [HGN-208, 2-(1H-indol-2-yl)-5-phenyl-1,3,4-oxadiazole] | 0 | 254 to 257 | 0 | 0 | 0 | 0 | 0 | 0 | 0 | 0 | > 1000 | 342 ± 42 | 165 ± 47 |  |  |  |  |  |  |  | 
3 | c1ccc2[nH]c(-c3nnc(C4CCC4)o3)cc2c1 [HGN-251, 2-cyclobutyl-5-(1H-indol-2-yl)-1,3,4-oxadiazole] | 0 | 169 to 173 | 0 | 0 | 0 | 0 | 0 | 0 | 0 | 0 | > 1000 | > 1000 | > 1000 |  |  |  |  |  |  |  | 
4 | COCc1nnc(-c2cc3ccccc3[nH]2)o1 [HGN-212, 2-(1H-indol-2-yl)-5-(methoxymethyl)-1,3,4-oxadiazole] | 0 | 152 to 156 | 0 | 0 | 0 | 0 | 0 | 0 | 0 | 0 | > 1000 | > 1000 | > 1000 |  |  |  |  |  |  |  | 
5 | Cc1ccc(OCc2nnc(-c3nc4ccccc4s3)o2)cc1 [HGN-825] |  |  |  |  |  |  |  |  |  |  |  |  |  | 0 | 0 | 0 | 0 | 0 | 11.5 | 0 | Antibacterial Bt zone of inhibition [13]: 0 millimeters; Antibacterial Cx zone of inhibition (Corynebacterium xerosis [15]; 0.5 mM): 0 millimeters; Antibacterial Cx zone of inhibition (Corynebacterium xerosis [15]; 1 mM): 0 millimeters; Antibacterial Pa zone of inhibition (Pseudomonas aeruginosa [16]; 0.1 mM): 0 millimeters; Antibacterial Pa zone of inhibition (Pseudomonas aeruginosa [16]; 0.5 mM): 0 millimeters; Antibacterial Pa zone of inhibition (Pseudomonas aeruginosa [16]; 1 mM): 0 millimeters; Antibacterial Ms zone of inhibition (Mycobacterium smegmatis [17]; 0.1 mM): 0 millimeters; Antibacterial Ms zone of inhibition (Mycobacterium smegmatis [17]; 0.5 mM): 13 millimeters; Antibacterial Ms zone of inhibition (Mycobacterium smegmatis [17]; 1 mM): 18 millimeters; Antibacterial Cp zone of inhibition ([18]; 0.1 mM): 0 millimeters; Antibacterial Cp zone of inhibition ([18]; 0.5 mM): 0 millimeters; Antibacterial Cp zone of inhibition ([18]; 1 mM): 0 millimeters; Antibacterial Ml zone of inhibition (Micrococcus luteus [19]; 0.1 mM): 0 millimeters; Antibacterial Ml zone of inhibition (Micrococcus luteus [19]; 0.5 mM): 0 millimeters; Antibacterial Ml zone of inhibition (Micrococcus luteus [19]; 1 mM): 11 millimeters; Antibacterial Kp zone of inhibition (Klebsiella pneumonia [20]; 0.1 mM): 0 millimeters; Antibacterial Kp zone of inhibition (Klebsiella pneumonia [20]; 0.5 mM): 0 millimeters; Antibacterial Kp zone of inhibition (Klebsiella pneumonia [20]; 1 mM): 0 millimeters
6 | Clc1ccc(OCc2nnc(-c3nc4ccccc4s3)o2)cc1 [HGN-826] |  |  |  |  |  |  |  |  |  |  |  |  |  | 0 | 0 | 0 | 0 | 0 | 12 | 0 | Antibacterial Bt zone of inhibition ([13]; 0.1 mM): 0 millimeters; Antibacterial Bt zone of inhibition ([13]; 0.5 mM): 0 millimeters; Antibacterial Bt zone of inhibition ([13]; 1 mM): 0 millimeters; Antibacterial Cx zone of inhibition (Corynebacterium xerosis [15]; 0.5 mM): 0 millimeters; Antibacterial Cx zone of inhibition (Corynebacterium xerosis [15]; 1 mM): 0 millimeters; Antibacterial Pa zone of inhibition (Pseudomonas aeruginosa [16]; 0.1 mM): 0 millimeters; Antibacterial Pa zone of inhibition (Pseudomonas aeruginosa [16]; 0.5 mM): 0 millimeters; Antibacterial Pa zone of inhibition (Pseudomonas aeruginosa [16]; 1 mM): 0 millimeters; Antibacterial Ms zone of inhibition (Mycobacterium smegmatis [17]; 0.1 mM): 0 millimeters; Antibacterial Ms zone of inhibition (Mycobacterium smegmatis [17]; 0.5 mM): 13 millimeters; Antibacterial Ms zone of inhibition (Mycobacterium smegmatis [17]; 1 mM): 20 millimeters; Antibacterial Cp zone of inhibition ([18]; 0.1 mM): 0 millimeters; Antibacterial Cp zone of inhibition ([18]; 0.5 mM): 0 millimeters; Antibacterial Cp zone of inhibition ([18]; 1 mM): 0 millimeters; Antibacterial Ml zone of inhibition (Micrococcus luteus [19]; 0.1 mM): 0 millimeters; Antibacterial Ml zone of inhibition (Micrococcus luteus [19]; 0.5 mM): 0 millimeters; Antibacterial Ml zone of inhibition (Micrococcus luteus [19]; 1 mM): 0 millimeters; Antibacterial Kp zone of inhibition (Klebsiella pneumonia [20]; 0.1 mM): 0 millimeters; Antibacterial Kp zone of inhibition (Klebsiella pneumonia [20]; 0.5 mM): 0 millimeters; Antibacterial Kp zone of inhibition (Klebsiella pneumonia [20]; 1 mM): 0 millimeters
